Experimental data as given in the supplement of paper PMC8443649.

Tested on: PATU8988T-SmBKRAS-LgBCRAF
Experiment: KRAS:CRAF interaction luminescence (EndoBind) relative to DMSO control (fold of DMSO); higher = more KRAS-CRAF complex
Description: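 EndoBind assay: PATU8988T cells with CRISPR knock-in SmB-KRAS(G12V) and LgB-CRAF, seeded with RealTime-Glo pro-substrate (1:2000) in 384-well plates. Cells were treated with RAF inhibitors (GDC0879, LY3009120, NVP-LHS533) or the MEK inhibitor Selumetinib, and the same plate was read for split-NanoLuc luminescence at several time points. Signal is normalised to the DMSO-treated wells at each time point; n=3 wells.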

CNc1ncc2cc(-c3cc(NC(=O)NCCC(C)(C)C)c(F)cc3C)c(C)nc2n1
KRAS:CRAF interaction luminescence
Settings	time after treatment 0 h	time after treatment 1 h	time after treatment 4 h	time after treatment 6 h	time after treatment 9 h	time after treatment 12 h
0.00375 µM	0.987	0.979	1.01	1.05	1.09	1.15
0.0075 µM	0.976	0.98	1.04	1.1	1.15	1.24
0.015 µM	0.996	0.98	1.07	1.16	1.22	1.32
0.03 µM	0.983	0.968	1.14	1.24	1.35	1.45
0.06 µM	1	0.994	1.21	1.34	1.46	1.58
0.12 µM	1	0.996	1.26	1.42	1.58	1.7
0.24 µM	0.955	0.991	1.35	1.57	1.76	1.96
0.46875 µM	0.987	1.03	1.42	1.67	1.84	2.05
0.9375 µM	0.982	1.06	1.51	1.75	1.91	2.07
1.875 µM	1	1.09	1.54	1.8	1.91	2.07
3.75 µM	0.971	1.08	1.59	1.77	1.89	2.04
7.5 µM	1.03	1.16	1.57	1.74	1.8	1.92
15 µM	1.03	1.14	1.47	1.59	1.62	1.78
30 µM	–	–	1.13	–	–	–

OCCn1cc(-c2ccc3c(c2)CC/C3=N\O)c(-c2ccncc2)n1 [GDC0879]
KRAS:CRAF interaction luminescence
Settings	time after treatment 0 h	time after treatment 1 h	time after treatment 4 h	time after treatment 6 h	time after treatment 9 h	time after treatment 12 h
0.00375 µM	0.967	0.989	0.964	0.967	0.958	0.9832
0.0075 µM	1.03	1.03	0.976	0.964	0.958	0.982
0.015 µM	0.987	1.03	0.985	0.966	0.953	0.969
0.03 µM	0.989	1.1	1.03	1.03	1.01	1.01
0.06 µM	0.977	1.22	1.1	1.09	1.07	1.08
0.12 µM	0.964	1.27	1.19	1.18	1.14	1.16
0.24 µM	0.983	1.4	1.4	1.38	1.36	1.36
0.46875 µM	1.01	1.5	1.62	1.61	1.58	1.59
0.9375 µM	1.01	1.53	1.75	1.81	1.74	1.78
1.875 µM	1.03	1.56	1.83	1.92	1.87	1.86
3.75 µM	1.03	1.54	1.85	1.93	1.9	1.99
7.5 µM	1.05	1.54	1.87	1.98	1.95	2.05
15 µM	1.02	1.46	1.8	1.99	2.03	2.15
30 µM	–	–	1.66	–	–	–

Cn1cnc2c(F)c(Nc3ccc(Br)cc3Cl)c(C(=O)NOCCO)cc21 [Selumetinib]
KRAS:CRAF interaction luminescence
Settings	time after treatment 0 h	time after treatment 1 h	time after treatment 4 h	time after treatment 6 h	time after treatment 9 h	time after treatment 12 h
0.00375 µM	0.968	0.983	0.958	0.954	0.937	0.963
0.0075 µM	0.975	0.977	0.949	0.931	0.943	0.974
0.015 µM	1.01	0.979	0.958	0.953	0.939	0.934
0.03 µM	0.961	0.971	0.973	0.97	0.956	0.965
0.06 µM	0.995	0.976	0.976	0.935	0.945	0.984
0.12 µM	0.994	0.979	0.974	0.975	0.948	0.973
0.24 µM	0.994	0.993	0.988	0.975	0.96	0.963
0.46875 µM	1	0.995	1	0.985	0.982	0.992
0.9375 µM	1.01	1.04	1.02	1.03	0.994	1.01
1.875 µM	0.978	1.07	1.06	1.06	1.04	1.06
3.75 µM	0.99	1.14	1.12	1.1	1.1	1.11
7.5 µM	1.01	1.02	1	0.995	0.981	0.998
15 µM	1.02	1.02	1	0.983	0.974	0.987
30 µM	–	–	0.953	–	–	–
